Assay results: the Kinase Knowledgebase extract (Sharma et al. 2016)

Experiments:
PIK3CB (Human) = PIK3CB (Human) (UniProt P42338); test: Inhibition of PIK3CB Kinase Activity
PIK3CA (human) = PIK3CA (human) (UniProt P42336); test: Inhibition of PIK3CA Kinase Activity
PIK3CA (human), sequence (P42336 whole entry, looked up): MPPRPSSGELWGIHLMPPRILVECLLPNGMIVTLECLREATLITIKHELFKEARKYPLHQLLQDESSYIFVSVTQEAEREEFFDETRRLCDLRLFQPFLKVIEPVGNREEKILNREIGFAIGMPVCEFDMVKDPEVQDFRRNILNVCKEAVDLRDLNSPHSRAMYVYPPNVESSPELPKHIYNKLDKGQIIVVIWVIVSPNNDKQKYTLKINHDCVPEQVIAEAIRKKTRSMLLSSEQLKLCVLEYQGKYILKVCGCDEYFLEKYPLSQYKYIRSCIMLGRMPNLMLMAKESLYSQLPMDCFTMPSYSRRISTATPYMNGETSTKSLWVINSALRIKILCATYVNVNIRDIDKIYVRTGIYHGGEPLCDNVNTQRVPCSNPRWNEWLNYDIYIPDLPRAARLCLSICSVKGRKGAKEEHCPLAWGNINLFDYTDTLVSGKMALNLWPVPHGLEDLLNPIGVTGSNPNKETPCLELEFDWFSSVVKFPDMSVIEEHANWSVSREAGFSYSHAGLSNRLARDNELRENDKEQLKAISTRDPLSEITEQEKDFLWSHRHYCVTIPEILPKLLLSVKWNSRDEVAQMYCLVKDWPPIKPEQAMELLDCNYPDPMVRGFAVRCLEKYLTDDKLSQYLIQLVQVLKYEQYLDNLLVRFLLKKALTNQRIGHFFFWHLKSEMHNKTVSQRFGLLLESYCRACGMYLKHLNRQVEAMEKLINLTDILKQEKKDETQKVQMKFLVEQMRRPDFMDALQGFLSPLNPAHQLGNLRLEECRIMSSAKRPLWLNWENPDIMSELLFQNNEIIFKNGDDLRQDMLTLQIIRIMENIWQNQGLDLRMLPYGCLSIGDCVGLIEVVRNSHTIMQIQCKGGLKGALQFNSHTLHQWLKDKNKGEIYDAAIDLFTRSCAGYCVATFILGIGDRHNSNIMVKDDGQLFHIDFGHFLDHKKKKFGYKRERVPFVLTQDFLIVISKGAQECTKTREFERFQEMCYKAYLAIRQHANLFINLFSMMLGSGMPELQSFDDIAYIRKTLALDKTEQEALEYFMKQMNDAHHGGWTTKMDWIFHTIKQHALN

PIK3CB (Human), sequence (P42338 whole entry, looked up): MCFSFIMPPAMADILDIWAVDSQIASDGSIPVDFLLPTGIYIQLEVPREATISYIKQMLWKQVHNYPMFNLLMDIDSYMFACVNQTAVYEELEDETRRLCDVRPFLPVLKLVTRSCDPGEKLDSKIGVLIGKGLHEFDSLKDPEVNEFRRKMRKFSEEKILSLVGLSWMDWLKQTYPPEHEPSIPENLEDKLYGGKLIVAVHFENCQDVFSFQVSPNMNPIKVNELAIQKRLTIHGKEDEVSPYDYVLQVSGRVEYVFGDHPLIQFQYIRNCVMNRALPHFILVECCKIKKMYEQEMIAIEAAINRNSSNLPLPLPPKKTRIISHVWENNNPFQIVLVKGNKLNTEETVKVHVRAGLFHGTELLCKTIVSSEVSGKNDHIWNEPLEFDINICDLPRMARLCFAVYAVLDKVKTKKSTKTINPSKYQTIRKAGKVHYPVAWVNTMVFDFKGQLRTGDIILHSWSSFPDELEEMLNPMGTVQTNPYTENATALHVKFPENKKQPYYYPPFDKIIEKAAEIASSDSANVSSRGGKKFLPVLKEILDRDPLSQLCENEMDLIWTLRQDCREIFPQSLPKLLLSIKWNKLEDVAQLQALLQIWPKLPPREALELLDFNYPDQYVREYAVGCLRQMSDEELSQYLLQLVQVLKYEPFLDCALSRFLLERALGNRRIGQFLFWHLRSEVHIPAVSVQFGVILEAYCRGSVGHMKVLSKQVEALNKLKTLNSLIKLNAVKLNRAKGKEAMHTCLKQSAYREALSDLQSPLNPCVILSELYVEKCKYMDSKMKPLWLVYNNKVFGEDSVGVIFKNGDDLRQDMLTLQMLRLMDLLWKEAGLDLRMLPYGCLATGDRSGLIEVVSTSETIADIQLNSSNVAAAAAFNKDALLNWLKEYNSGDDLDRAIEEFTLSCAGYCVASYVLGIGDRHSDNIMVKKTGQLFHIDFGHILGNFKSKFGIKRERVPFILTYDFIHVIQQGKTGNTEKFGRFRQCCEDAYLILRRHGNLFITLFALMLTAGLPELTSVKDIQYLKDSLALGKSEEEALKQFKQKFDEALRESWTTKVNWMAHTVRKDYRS

Row | SMILES | IC50 (PIK3CB (Human)) [µM] | IC50 (PIK3CA (human)) [µM]
1 | CC(=O)Nc1nc2ccc(-c3cnc(Cl)c(OC4CCOC4)c3)cc2s1 (stereo not drawn) | 2.87 | 0.169
2 | CC(=O)Nc1nc2ccc(-c3cccc(N)c3)nc2s1 | 13.3 | –
3 | CC(=O)Nc1nc2ccc(-c3cnc(Cl)c(F)c3)cc2s1 | 13.3 | –
4 | COc1cc(-c2ccc3nc(NC(C)=O)sc3c2)cnc1Br | 13.3 | –
5 | CC(=O)Nc1nc2ccc(-c3ccnc(OCCCN4CCOCC4)n3)cc2s1 | 11 | –
6 | CC(=O)Nc1nc2ccc(-c3ccnc(N4CCC[C@@H]4c4ccccc4C)n3)cc2s1 | 0.777 | 1.56

The remaining lines, values ahead:

Row | IC50 (PIK3CB (Human)) [µM] | IC50 (PIK3CA (human)) [µM] | SMILES
7 | 0.472 | 0.0441 | CC(=O)Nc1nc2ccc(-c3cnc(Cl)c(OC(C)C)c3)cc2s1
8 | 13.3 | – | COc1ccc(COc2nccc(-c3ccc4nc(NC(C)=O)sc4c3)n2)cc1
9 | 1.61 | 2.62 | CC(=O)Nc1nc2ccc(-c3ccnc(N4CCC[C@@H]4c4ccccc4)n3)cc2s1
